The results in this text go back to US20230329989A1, “A PERSONAL CARE COMPOSITION COMPRISING AMINO ACIDS” (priority 2020, published 2023).

The test system of one assay is S. epidermidis. Kind of assay: Growth of S. epidermidis in the presence of a single amino acid as supplement. Type of assay: cell-based. The conditions noted are these: 0.1% individual amino acid in 10% TSB + 1% glucose, 37° C., 24 hrs, absorbance at 600 nm normalized to control without amino acid; for activity at 0.1 %: Staphylococcus epidermidis. On the procedure:
The growth of the above commensal bacteria due to the presence of each of the twenty different amino acids separately was studied. All 20 L-amino acids were procured from Hi media. The stocks were prepared in distilled water and filter sterilized by passing it through 0.22 μm filter. A 100 mM sodium phosphate buffer pH 7.4 was prepared and filter sterilized. Reaction was set up in a 96 well flat bottom transparent plate. […] The final concentration of individual amino acid was 0.1%. Each reaction was set up in triplicates. The plate was incubated at 37° C. under stationary conditions for 24 hrs. After 24 hrs, the absorbance of the plate was measured at 600 nm using TECAN plate reader. The absorbance values were then normalized to control (S. epidermidis grown in 10% TSB+1% glucose).

Another assay concerns S. aureus. Kind of assay: Growth kinetics of S. aureus with individual amino acids. Type of assay: cell-based. The conditions noted are these: 0.1 wt % individual amino acid; for inhibition of S. aureus (in words): among the seven selected; for Absorbance at 600 nm: S. aureus, growth till 20 hours. On the procedure: In order to identify a set of amino acids which are major contributors to the higher growth rate of S. aureus in Mix 7, growth kinetics experiments were carried out with all seven individual amino acids. […] The experiment was carried out for growth till 20 hours. They were carried out at 0.1 wt % concentration of the individual amino acid.

Each structure is given as a SMILES string.

With `CC(N)C(=O)O` (stereo not drawn) [Example 1A, Alanine], the activity at 0.1 % in the assay with S. epidermidis came to 139%. In the assay with S. aureus, the “inhibition of S. aureus (in words)” value was “maximum inhibition” and the “Absorbance at 600 nm” value worked out at 0.447. `NC(=O)C[C@H](N)C(=O)O` [Example 1C, Asparagine]: the activity at 0.1 % in the assay on S. epidermidis came to 113%. Turning to `NC(CC(=O)O)C(=O)O` (stereo not drawn) [Example 1D, Aspartic acid], in the assay on S. epidermidis, the activity at 0.1 % was 121%. Besides, in the assay on S. aureus, the “inhibition of S. aureus (in words)” value is “maximum inhibition” and the “Absorbance at 600 nm” value is reported as 0.540. The corresponding values for `NC(CS)C(=O)O` (stereo not drawn) [Example 1E, Cysteine] are 121%, “maximum inhibition” and 0.476. On to `NCC(=O)O` [Example 1F, Glycine], for which the “% growth” value in the assay with S. epidermidis was 135%. For the same compound, the “Absorbance at 600 nm” value in the assay on S. aureus amounted to 0.863. Regarding `NC(=O)CC[C@H](N)C(=O)O` [Example 1H, Glutamine], the activity at 0.1 % in the assay on S. epidermidis was 109%. The same measure, in the same setting: the same measure for `CC[C@H](C)[C@H](N)C(=O)O` [Example 1J, Isoleucine]: 99%; for `CC(C)C[C@H](N)C(=O)O` [Example 1K, Leucine]: 96%; for `CSCC[C@H](N)C(=O)O` [Example 1M, Methionine]: 87%.

Take `O=C(O)[C@@H]1CCCN1` [Example 1O, Proline]: in the assay on S. epidermidis, the activity at 0.1 % came to 93%. As to `N[C@@H](CO)C(=O)O` [Example 1P, Serine], the activity at 0.1 % in the assay on S. epidermidis came to 134%. In the assay on S. aureus, the “inhibition of S. aureus (in words)” value is on record as “maximum inhibition” and the “Absorbance at 600 nm” value was 0.504. The corresponding values for `N[C@@H](Cc1ccc(O)cc1)C(=O)O` [Example 1Q, Tyrosine] are 120%, “maximum inhibition” and 0.478. For `C[C@@H](O)[C@H](N)C(=O)O` [Example 1R, Threonine], the activity at 0.1 % in the assay on S. epidermidis amounted to 126%. In the assay with S. aureus, the “Absorbance at 600 nm” value came out at 0.697. Take `CC(C)[C@H](N)C(=O)O` [Example 1T, Valine]: the activity at 0.1 % in the assay on S. epidermidis was 96%. Consider `N[C@@H](Cc1c[nH]cn1)C(=O)O` [Example 11, Histidine], for which the activity at 0.1 % in the assay on S. epidermidis worked out at 96%.
